Test results reported in patent US20250042876A1, “HERBICIDAL PYRAZOLE PYRIMIDINE COMPOUNDS” (SYNGENTA CROP PROTECTION AG, priority 2021, published 2025).

Legend:
Assay type in all cases: in vivo
Settings in all cases: 250 g/ha, evaluated after 13 days
[1] = test system: Amaranthus palmeri (AMAPA); experiment: Post-emergence herbicidal test, glasshouse
Description: (§1) Seeds of a variety of test species are sown in standard soil in pots Amaranthus palmeri (AMAPA), Amaranthus retoflexus (AMARE), Setaria faberi (SETFA), Echinochloa crus-galli (ECHCG), Ipomoea hederacea (IPOHE)). After cultivation for one day (pre-emergence) or after 8 days cultivation (post-emergence) under controlled conditions in a glasshouse (at 24/16° C., day/night; 14 hours light; 65% humidity), the plants are sprayed with an aqueous spray solution derived from the formulation of the technical active ingredient in acetone/water (50:50) solution containing 0.5% Tween 20 (polyoxyethelyene sorbitan monolaurate, CAS RN 9005-64-5). Compounds are applied at 250 g/ha unless otherwise stated. The test plants are then grown in a glasshouse under controlled conditions in a glasshouse (at 24/16° C., day/night; 14 hours light; 65% humidity) and watered twice daily. After 13 days for pre and post-emergence, the test is evaluated for the percentage damage caused to the plant. The biological activities are shown in the following table on a five-point scale (5=81-100%; 4=61-80%; 3=41-60%; 2=21-40%; 1=0-20%).

[2] = test system: Ipomoea hederacea (IPOHE); experiment: Post-emergence herbicidal test, glasshouse
Description: as §1

[3] = test system: Amaranthus retoflexus (AMARE); experiment: Post-emergence herbicidal test, glasshouse
Description: as §1

[4] = test system: Echinochloa crus-galli (ECHCG); experiment: Post-emergence herbicidal test, glasshouse
Description: as §1

[5] = test system: Amaranthus palmeri (AMAPA); experiment: Pre-emergence herbicidal test, glasshouse
Description: as §1

[6] = test system: Ipomoea hederacea (IPOHE); experiment: Pre-emergence herbicidal test, glasshouse
Description: as §1

[7] = test system: Amaranthus retoflexus (AMARE); experiment: Pre-emergence herbicidal test, glasshouse
Description: as §1

[8] = test system: Echinochloa crus-galli (ECHCG); experiment: Pre-emergence herbicidal test, glasshouse
Description: as §1

## CS(=O)(=O)c1ccc(-n2nc(C(F)F)cc2Cc2ncc(Cl)cn2)cc1 [Compound 1.027]
[1]
  AMAPA percentage damage caused to the plant (five-point scale): 5 (5=81-100%)
[2]
  IPOHE percentage damage caused to the plant (five-point scale): 5 (5=81-100%)
[3]
  AMARE percentage damage caused to the plant (five-point scale): 5 (5=81-100%)
[4]
  ECHCG percentage damage caused to the plant (five-point scale): 5 (5=81-100%)
[5]
  AMAPA percentage damage caused to the plant (five-point scale): 5 (5=81-100%)
[6]
  IPOHE percentage damage caused to the plant (five-point scale): 5 (5=81-100%)
[7]
  AMARE percentage damage caused to the plant (five-point scale): 5 (5=81-100%)
[8]
  ECHCG percentage damage caused to the plant (five-point scale): 5 (5=81-100%)

## FC(F)(Cl)c1cc(Cc2ncc(Cl)cn2)n(-c2cnc(Cl)c(Cl)c2)n1 [Compound 1.023]
[1]
  AMAPA percentage damage caused to the plant (five-point scale): 5 (5=81-100%)
[2]
  IPOHE percentage damage caused to the plant (five-point scale): 3 (3=41-60%)
[3]
  AMARE percentage damage caused to the plant (five-point scale): 5 (5=81-100%)
[4]
  ECHCG percentage damage caused to the plant (five-point scale): 4 (4=61-80%)
[5]
  AMAPA percentage damage caused to the plant (five-point scale): 5 (5=81-100%)
[6]
  IPOHE percentage damage caused to the plant (five-point scale): 5 (5=81-100%)
[7]
  AMARE percentage damage caused to the plant (five-point scale): 5 (5=81-100%)
[8]
  ECHCG percentage damage caused to the plant (five-point scale): 5 (5=81-100%)

## FC(F)c1cc(Cc2ncc(Cl)cn2)n(-c2cccc(Cl)c2)n1 [Compound 1.031]
[1]
  AMAPA percentage damage caused to the plant (five-point scale): 4 (4=61-80%)
[2]
  IPOHE percentage damage caused to the plant (five-point scale): 4 (4=61-80%)
[3]
  AMARE percentage damage caused to the plant (five-point scale): 5 (5=81-100%)
[4]
  ECHCG percentage damage caused to the plant (five-point scale): 4 (4=61-80%)
[5]
  AMAPA percentage damage caused to the plant (five-point scale): 5 (5=81-100%)
[6]
  IPOHE percentage damage caused to the plant (five-point scale): 5 (5=81-100%)
[7]
  AMARE percentage damage caused to the plant (five-point scale): 5 (5=81-100%)
[8]
  ECHCG percentage damage caused to the plant (five-point scale): 5 (5=81-100%)

## N#Cc1ccc(-n2nc(C#N)cc2Cc2ncc(Cl)cn2)cn1 [Compound 1.019]
[1]
  AMAPA percentage damage caused to the plant (five-point scale): 5 (5=81-100%)
[2]
  IPOHE percentage damage caused to the plant (five-point scale): 3 (3=41-60%)
[3]
  AMARE percentage damage caused to the plant (five-point scale): 5 (5=81-100%)
[4]
  ECHCG percentage damage caused to the plant (five-point scale): 4 (4=61-80%)
[5]
  AMAPA percentage damage caused to the plant (five-point scale): 5 (5=81-100%)
[6]
  IPOHE percentage damage caused to the plant (five-point scale): 5 (5=81-100%)
[7]
  AMARE percentage damage caused to the plant (five-point scale): 5 (5=81-100%)
[8]
  ECHCG percentage damage caused to the plant (five-point scale): 4 (4=61-80%)

## Fc1ccc(-n2nc(C(F)(F)Cl)cc2Cc2ncc(Cl)cn2)cc1F [Compound 1.024]
[1]
  AMAPA percentage damage caused to the plant (five-point scale): 5 (5=81-100%)
[2]
  IPOHE percentage damage caused to the plant (five-point scale): 4 (4=61-80%)
[3]
  AMARE percentage damage caused to the plant (five-point scale): 5 (5=81-100%)
[4]
  ECHCG percentage damage caused to the plant (five-point scale): 5 (5=81-100%)
[5]
  AMAPA percentage damage caused to the plant (five-point scale): 5 (5=81-100%)
[6]
  IPOHE percentage damage caused to the plant (five-point scale): 5 (5=81-100%)
[7]
  AMARE percentage damage caused to the plant (five-point scale): 5 (5=81-100%)
[8]
  ECHCG percentage damage caused to the plant (five-point scale): 5 (5=81-100%)

## FC(F)c1cc(Cc2ncc(Cl)cn2)n(-c2ccc(Cl)cc2)n1 [Compound 1.029]
[1]
  AMAPA percentage damage caused to the plant (five-point scale): 5 (5=81-100%)
[2]
  IPOHE percentage damage caused to the plant (five-point scale): 4 (4=61-80%)
[3]
  AMARE percentage damage caused to the plant (five-point scale): 5 (5=81-100%)
[4]
  ECHCG percentage damage caused to the plant (five-point scale): 4 (4=61-80%)
[5]
  AMAPA percentage damage caused to the plant (five-point scale): 5 (5=81-100%)
[6]
  IPOHE percentage damage caused to the plant (five-point scale): 5 (5=81-100%)
[7]
  AMARE percentage damage caused to the plant (five-point scale): 5 (5=81-100%)
[8]
  ECHCG percentage damage caused to the plant (five-point scale): 5 (5=81-100%)

## FC(F)c1cc(Cc2ncc(Cl)cn2)n(-c2cnc(Cl)c(Cl)c2)n1 [Compound 1.030]
[1]
  AMAPA percentage damage caused to the plant (five-point scale): 5 (5=81-100%)
[2]
  IPOHE percentage damage caused to the plant (five-point scale): 4 (4=61-80%)
[3]
  AMARE percentage damage caused to the plant (five-point scale): 5 (5=81-100%)
[4]
  ECHCG percentage damage caused to the plant (five-point scale): 4 (4=61-80%)
[5]
  AMAPA percentage damage caused to the plant (five-point scale): 5 (5=81-100%)
[6]
  IPOHE percentage damage caused to the plant (five-point scale): 4 (4=61-80%)
[7]
  AMARE percentage damage caused to the plant (five-point scale): 5 (5=81-100%)
[8]
  ECHCG percentage damage caused to the plant (five-point scale): 5 (5=81-100%)

## Fc1ccc(-n2nc(C(F)F)cc2Cc2ncc(Cl)cn2)cc1 [Compound 1.033]
[1]
  AMAPA percentage damage caused to the plant (five-point scale): 5 (5=81-100%)
[2]
  IPOHE percentage damage caused to the plant (five-point scale): 4 (4=61-80%)
[3]
  AMARE percentage damage caused to the plant (five-point scale): 5 (5=81-100%)
[4]
  ECHCG percentage damage caused to the plant (five-point scale): 4 (4=61-80%)
[5]
  AMAPA percentage damage caused to the plant (five-point scale): 5 (5=81-100%)
[6]
  IPOHE percentage damage caused to the plant (five-point scale): 5 (5=81-100%)
[7]
  AMARE percentage damage caused to the plant (five-point scale): 5 (5=81-100%)
[8]
  ECHCG percentage damage caused to the plant (five-point scale): 5 (5=81-100%)

## N#Cc1cc(Cc2ncc(Cl)cn2)n(-c2ccc(Cl)nc2)n1 [Compound 1.020]
[1]
  AMAPA percentage damage caused to the plant (five-point scale): 5 (5=81-100%)
[2]
  IPOHE percentage damage caused to the plant (five-point scale): 4 (4=61-80%)
[3]
  AMARE percentage damage caused to the plant (five-point scale): 5 (5=81-100%)
[4]
  ECHCG percentage damage caused to the plant (five-point scale): 5 (5=81-100%)
[5]
  AMAPA percentage damage caused to the plant (five-point scale): 5 (5=81-100%)
[6]
  IPOHE percentage damage caused to the plant (five-point scale): 5 (5=81-100%)
[7]
  AMARE percentage damage caused to the plant (five-point scale): 5 (5=81-100%)
[8]
  ECHCG percentage damage caused to the plant (five-point scale): 5 (5=81-100%)

## FC(F)(F)c1cc(Cc2ncc(Cl)cn2)n(-c2ccc(Cl)nc2)n1 [Compound 1.009]
[1]
  AMAPA percentage damage caused to the plant (five-point scale): 5 (5=81-100%)
[2]
  IPOHE percentage damage caused to the plant (five-point scale): 4 (4=61-80%)
[3]
  AMARE percentage damage caused to the plant (five-point scale): 5 (5=81-100%)
[4]
  ECHCG percentage damage caused to the plant (five-point scale): 5 (5=81-100%)
[5]
  AMAPA percentage damage caused to the plant (five-point scale): 5 (5=81-100%)
[6]
  IPOHE percentage damage caused to the plant (five-point scale): 5 (5=81-100%)
[7]
  AMARE percentage damage caused to the plant (five-point scale): 5 (5=81-100%)
[8]
  ECHCG percentage damage caused to the plant (five-point scale): 5 (5=81-100%)

## Clc1cnc(Cc2cc(I)nn2-c2ccc(Cl)nc2)nc1 [Compound 1.021]
[1]
  AMAPA percentage damage caused to the plant (five-point scale): 5 (5=81-100%)
[2]
  IPOHE percentage damage caused to the plant (five-point scale): 4 (4=61-80%)
[3]
  AMARE percentage damage caused to the plant (five-point scale): 5 (5=81-100%)
[4]
  ECHCG percentage damage caused to the plant (five-point scale): 5 (5=81-100%)
[5]
  AMAPA percentage damage caused to the plant (five-point scale): 5 (5=81-100%)
[6]
  IPOHE percentage damage caused to the plant (five-point scale): 5 (5=81-100%)
[7]
  AMARE percentage damage caused to the plant (five-point scale): 5 (5=81-100%)
[8]
  ECHCG percentage damage caused to the plant (five-point scale): 5 (5=81-100%)

## FC(F)(Cl)c1cc(Cc2ncc(Cl)cn2)n(-c2ccc(Cl)nc2)n1 [Compound 1.022]
[1]
  AMAPA percentage damage caused to the plant (five-point scale): 5 (5=81-100%)
[2]
  IPOHE percentage damage caused to the plant (five-point scale): 3 (3=41-60%)
[3]
  AMARE percentage damage caused to the plant (five-point scale): 5 (5=81-100%)
[4]
  ECHCG percentage damage caused to the plant (five-point scale): 5 (5=81-100%)
[5]
  AMAPA percentage damage caused to the plant (five-point scale): 5 (5=81-100%)
[6]
  IPOHE percentage damage caused to the plant (five-point scale): 5 (5=81-100%)
[7]
  AMARE percentage damage caused to the plant (five-point scale): 5 (5=81-100%)
[8]
  ECHCG percentage damage caused to the plant (five-point scale): 5 (5=81-100%)

## N#Cc1ccc(-n2nc(C(F)F)cc2Cc2ncc(Cl)cn2)cc1 [Compound 1.028]
[1]
  AMAPA percentage damage caused to the plant (five-point scale): 5 (5=81-100%)
[2]
  IPOHE percentage damage caused to the plant (five-point scale): 4 (4=61-80%)
[3]
  AMARE percentage damage caused to the plant (five-point scale): 5 (5=81-100%)
[4]
  ECHCG percentage damage caused to the plant (five-point scale): 5 (5=81-100%)
[5]
  AMAPA percentage damage caused to the plant (five-point scale): 5 (5=81-100%)
[6]
  IPOHE percentage damage caused to the plant (five-point scale): 5 (5=81-100%)
[7]
  AMARE percentage damage caused to the plant (five-point scale): 5 (5=81-100%)
[8]
  ECHCG percentage damage caused to the plant (five-point scale): 5 (5=81-100%)
